Results on three molecules are retold here after patent US8148392B2, “2-indolyl imidazo [4,5-d] phenanthroline derivatives and their use in the treatment of cancer” (Lorus Therapeutics Inc., priority 2005, dated 2012).

The nature of test [1]: PAR metal binding assay, zinc. The class given is physicochemical. To be noted: pH 7.5, 200 μM PAR. The protocol:
(§1) Results are shown in FIGS. 28A (ZnCl2), 28B (CuCl2) and 28C (FeCl2). In vitro 4-(2-pyridylazo) resorcinol (PAR) zinc binding assay was performed as follows. In triplicate wells of 96-well plate (Sarstedt, Newton, N.C.), 10 μL volume of indicated final concentrations of ZnCl2 in 0.2M Tris-HCl, pH 7.5 was incubated with 10 μL of 80% acetonitrile-20% DMSO vehicle control or indicated final concentrations of the compounds of Formula I, dissolved in 80% acetonitrile-20% DMSO, for 15 min at room temperature. Then, 80 μL of PAR at final concentration of 200 μM in 0.2M Tris-HCl, pH 7.5 was added and the color development of PAR-Zn^2+ complex was measured by a multi-well spectrophotometer (Bio-Tek Instruments Inc.) at 500 nm.
(§2) Metal chelation property of compound 64 and the relative affinity on different metal ions were evaluated and compared with the effect of compound 3 in vitro using 4-(2-pyridylazo) resorcinol (PAR) colorimetric zinc assay utilizing methodology as described above in the preceding Examples. Indicated final concentrations of ZnCl2 (FIG. 56A), CuCl2 (FIG. 56B) or FeCl2 (FIG. 56C) were incubated with 80% acetonitrile-20% DMSO vehicle control or 200 μM of the compounds of Formula I. The color development of PAR-metal ion complex was measured by a multi-well spectrophotometer at 500 nm.

Test [2] in a line: PAR metal binding assay, iron. The class given is physicochemical. To be noted: 200 μM compound. The protocol:
as §1, §2

In test [3] the test system is human lung NCI-H460 cells. Briefly: Large-cell lung carcinoma NCI-H460 xenograft model, tumour growth. It is filed as in vivo, CD-1 female nude mice. The note with it: for tumour size and weight: Lutrol (i.p.), lipid-based (i.v.) or water-based (i.p.) formulations. The protocol:
The ability of compounds of Formula I to inhibit large-cell lung tumour growth in vivo was tested by determining the efficacy of compound 3 in a xenograft model as described below. Compound 3 was tested as a lipid-based formulation having the following composition: distearoylphosphatidylethanolamine-polyethylene glycol 2000 (DSPE-PEG/5% mole) and egg phosphatidylcoline (ePC/95% mole). The formulation was prepared as follows: Stock solutions of compound 3 and lipid (ePC and DSPE-PEG) were prepared in DMF. Specific volumes of the stock solutions of compound 3 and lipid were then mixed in order to achieve a final lipid concentration of 25 mg/mL (ePC:DSPE-PEG=95:5 (mol %) and a compound 3 to total lipid ratio of 1:10 (w/w). The mixture was stirred for four hours, thoroughly dried under nitrogen and left overnight under vacuum. HEPES buffer saline (HBS 0.01 M, pH=7.4) warmed to 60° C. was then added in order to rehydrate the dried film. The solutions were vortexed, stirred for 48 hours at room temperature and sonicated for two and half hours. The formulation was then centrifuged at 1000 rpm for 5 minutes to remove any free compound 3.
CD-1 female nude mice (6-7 weeks, 7 mice per treatment group) were injected […] with human lung NCI-H460 cells (3×10^6 cells in 0.1 ml PBS) subcutaneously. Treatment of the mice with vehicle or compound 3 was initiated 5 days post-inoculation (size of tumours=20-40 mm^3) for 7-day cycles of five days followed by a 2 day break for the duration of the experiment (35 days). Mice were treated with 80 mg/kg/d for the first week followed by 40 mg/kg/d until the end of the experiment. The size of the tumours was measured over the course of the experiment using calipers, and the weight of the tumours was measured after the animals were sacrificed.
The ability of compounds 3, 5, and 7 to inhibit large-cell lung carcinoma cell growth in vivo was tested in the mouse xenograft model as described in Example 27. The compounds were tested as Lutrol formulations (administered i.p.), lipid-based formulations micelles (administered i.v.), or water-based formulations (administered i.p.). The vehicle controls included Lutrol control (administered i.p.), lipid micelle control (administered i.v.), and water control (administered i.p.). Lutrol formulations contained 15% Lutrol and 10% DMSO. The composition of the lipid-based formulations and preparation of same was as described in Example 27 above.

Test [4] in a line: PAR metal binding assay, copper. To be noted: pH 7.5, 200 μM PAR. It is filed as physicochemical. The protocol:
as §1, §2

The subject of another test is KLF4. Briefly: KLF4 DNA binding activity, EMSA, HT-29 nuclear extracts. It is filed as cell-based, human. The protocol: Based on overlapping transcription factor binding sites on KLF4 gene promoter region (as shown in FIG. 32A), MTF-1 binding may favor increased binding of other KLF4 inducers; Sp1 and KLF4.
Electrophoretic mobility shift assay (EMSA) was performed as follows. Nuclear extracts from HT-29 cells (10^7 cells in 100 mm culture dish in each experimental group) were prepared using nuclear extraction kit (Panomics, Redwood City, Calif.). EMSA assays were performed using KLF4 and Sp1 EMSA “Gel-Shift” kits (Panomics), by following the manufacturer's instruction. Briefly, 5 μg of nuclear extract was used for each binding reaction. After 30 min of binding reaction, the samples were separated on 6% polyacrylamide gel at 4° C. at 120 V, and transferred to BrightStar™-Plus positively charged nylon membrane. The biotin-labeled probes on the membrane were visualized by using ECL detection system (Panomics).
Background: A gel shift assay detects complexes by their altered migration in electrophoresis.

Test [5] concerns MDA-MB-231 breast cancer cells. The experiment in a line: XTT cell proliferation assay, MDA-MB-231. The note with it: Homo sapiens, read-out: IC50 (cell growth inhibition). The class given is cell-based, human. The protocol:
Cell growth inhibition IC50 (μM) by compounds of Formula I was tested on various cancer cell types by XTT cell proliferation assay. The growth inhibitory effects of the compounds of Formula I as shown below for the melanoma cell line SK-MEL-2 were reproducible by Lorus Therapeutics Inc.

In another test the test system is MTF-1. The experiment in a line: MTF-1 mRNA in HT-29 tumour xenografts, RT-PCR. The note with it: HT-29 xenograft, versus vehicle. The class given is in vivo, CD-1 athymic nude mice. The protocol: Correlation between zinc-sensitive transcription factor MTF-1 and a cell cycle regulator Cyclin D1 expression in HT-29 colon cancer xenograft tissues is shown in FIG. 30. Based on the presence of putative MTF-1-binding DNA sequences in Cyclin D1 gene promoter region (shown in FIG. 30A), expression levels of MTF-1 and Cyclin D1 in xenograft tissues were examined by RT-PCR, using tissue RNA extract.
The tumor regression efficacy of compound 3 was assessed in compound 3-treated HT-29-transplanted athymic mice (FIG. 54A), and correlated with gene expressions of MTF-1, KLF4 and Cyclin D1 in HT-29 xenograft tissues (FIG. 54B). CD-1 athymic nude mice (4 per group) were injected subcutaneously with HT-29 cells (3×10^6 cells in 0.1 mL PBS). At 5 days after tumor cell inoculation, the mice were intra-peritoneally injected with 200 μL vehicle control or 100 mg/kg compound 3, for 5 days followed by 10 days interval, for 2 cycles (day 5 to 9 as a first cycle injection and day 20 to 24 as a second cycle injection). The tumor size was measured during the course of treatment using calipers (FIG. 54A). The mice were sacrificed at 34 days after tumor cell inoculation. The tumor tissues were excised, frozen immediately and stored at −80° C. until RNA extraction and gene expression was analyzed by RT-PCR (FIG. 54B). […]

Entries after “also recorded” stand apart in the source; their conditions may differ.

One may read the IC50 as the concentration needed to halve the response being measured. For `Cc1[nH]c2ccccc2c1-c1nc2c3cccnc3c3ncccc3c2[nH]1` [Compound 3], the “Zn binding to PAR (PAR-Zn2+ absorbance at 500 nm)” value in test [1] is on record as “attenuated; also recorded: eliminated”. The “color development of PAR-Fe2+” value in test [2] is on record as “minimally affected”. The “tumour size and weight” value in test [3] is “able to decrease the size (FIG. 16A) and weight (FIG. 16B) of tumours”. The “tumour growth (size and weight)” value in test [3] (lipid-based formulation, 80 mg/kg/d first week then 40 mg/kg/d, 35 days) is “able to inhibit large-cell lung tumour growth”. Besides, in test [4], the “Cu+2 binding to PAR (PAR-Cu2+ absorbance at 500 nm)” value is “attenuated; also recorded: eliminated”. Moreover, in the test with KLF4, the “DNA binding activity of KLF4” value is recorded as “Increased DNA binding activities”. Besides, in test [5], the IC50 was 5 µM. The “MTF-1 expression in tumour xenografts” value in the test on MTF-1 (listed as compound 3) was “Decreased MTF-1 expression; also recorded: decrease in MTF-1 and Cyclin D1 gene expressions”.
Take `CCc1cccc2c(-c3nc4c5cccnc5c5ncccc5c4[nH]3)c(C(C)(C)C)[nH]c12` [Compound 64]: the “Zn binding to PAR (PAR-Zn2+ absorbance at 500 nm)” value in test [1] is given as “eliminated”. In addition, the “color development of PAR-Fe2+” value in test [2] is recorded as “minimally affected”. The “Cu+2 binding to PAR (PAR-Cu2+ absorbance at 500 nm)” value in test [4] is “eliminated”.
For `Cc1[nH]c2ccc(F)cc2c1-c1nc2c3cccnc3c3ncccc3c2[nH]1` [Compound 7], the “tumour size and weight” value in test [3] was “able to decrease the size (FIG. 16A) and weight (FIG. 16B) of tumours”. Moreover, in test [5], the IC50 was 5 µM. Moreover, the “MTF-1 expression in tumour xenografts” value with MTF-1 is reported as “Decreased MTF-1 expression”.
